# Reference: patent US7534871B2, “Preparation and use of carbohydrate-based bicyclic ring structures with antimicrobial and cytostatic activity” (Kemin Pharma B.V.B.A., priority 2004, dated 2009)
# Where two headings read alike, the source gives them in different places.
# What was measured:
# [1] = tested on: S. aureus ATTC29213 LMG10147; experiment: Anti-bacterial activity, Bioscreen C growth curve: S. aureus; assay type: cell-based; settings: Staphylococcus aureus, 35° C., 16 hours, negative control = 100, read-out: % of growth at 25 PPM compared to the negative control, S. aureus ATTC29213 LMG10147
# Method: (§1) For the determination of the anti-bacterial and anti-fungal activity the Bioscreen C Analyser Labsystems, Finland, was used. This is an automated reader-incubator. It measures growth continuously by vertical photometry (optical density), processes the data and provides a print out of the results. The area under the growth curve is automatically determined via the Biolink software.
# (§2) The inoculum size of the bacteria is standardized to approximately 5×10^5 CFU/ml.
# (§3) For bacteria, the 100-honey-well plates containing test chemical, Mueller-Hinton broth and inoculum (=sample) are incubated at 35° C. for 16 hours. Also wells without inoculum are incubated (=blanco). Yeasts are incubated 35° C. for 24 hours in RPMI 1640+MOPS buffer at 165 mM. Moulds also in RPMI 1640+MOPS buffer at 165 mM are incubated 25° C. for 5 days. All micro-organisms are screened against a known concentration of the reference antibiotics or antimycotics such as vancomycin, penicillin G, gentamicin or amphotericin B. The growth curve and the area under the growth curve can be determined using the Biolink software; this is illustrated in FIG. 1.
# (§4) The area of the blanco is subtracted from the area of the sample, this number (delta) gives us an indication of the biological activity of the molecules tested and can be expressed as a % of growth at a specific dose compared to a negative control that has a value of 100, illustrated in FIG. 2. Screening of each dose of a specific compound is repeated 5 times. The dose used for all new molecules in all tests is 25 PPM or 25 μg/ml.
# (§5) In Table 4 the results of the anti-bacterial activity is given for the new molecules. The micro-organisms used are Staphylococcus aureus, MRSA, VRE, Enterococcus faecalis, Salmonella typhimurium and Pseudomonas aeruginosa.
# HIV-2 (ROD) = experiment: Anti-viral activity: HIV-2-induced cytopathicity in human CEM cell cultures; assay type: cell-based; settings: Human immunodeficiency virus 2, CCRF-CEM; concentration required to inhibit HIV-induced cytopathicity in human CEM cell cultures by 50%
# VZV YS = experiment: Anti-viral activity: VZV-induced plaque formation in HEL cell cultures, YS strain; assay type: cell-based, varicella zoster virus (VZV); settings: Human alphaherpesvirus 3, VZV-induced plaque formation in human embryonic lung HEL cell cultures, 50%
# [2] = tested on: Microsporum gypseum IHEM 3999 - ATCC 14683; experiment: Anti-fungal activity, Bioscreen C growth curve: Microsporum gypseum (mold); assay type: cell-based; settings: Nannizzia gypsea, ATCC14683, 120 h; 25 PPM; 25° C., 5 days; negative control = 100; read-out: % of growth at a dose of 25 PPM compared to the negative control, Microsporum gypseum IHEM 3999 - ATCC 14683
# Method: as §1
# The inoculum size of the mould is standardized to 0.4-5.0×10^4 CFU/ml.
# as §3, §4
# (§6) In Table 5 the anti-fungal activity is given for the new molecules. The micro-organisms used were Candida albicans (a typical yeast) and Microsporum gypseum (a typical mold).
# as §1, with “Also for” for “For”, “the” for “the anti-bacterial and”, “Labsystems Oy, Finland” for “Labsystems, Finland,”, “used.” for “used. This is an automated reader-incubator.”
# (§7) The inoculum size of the yeast is standardized to 0.5-2.5×10^3 CFU/ml. The inoculum size of the mould is standardized to 0.4-5.0×10^4 CFU/ml. Yeasts are incubated 35° C. for 24 hours in RPMI 1640+MOPS buffer at 165 mM. Moulds also in RPMI 1640+MOPS buffer at 165 mM are incubated 25° C. for 5 days.
# (§8) As a control, all micro-organisms are screened against some reference antibiotics with known MIC. Screening of each dose of a specific compound is repeated 5 times.
# [3] = tested on: S. typhimurium ATTC700408; experiment: Anti-bacterial activity, Bioscreen C growth curve: S. typhimurium; assay type: cell-based; settings: Salmonella enterica, LMG16217 / TYPHIMURIUM, 35° C., 16 hours, negative control = 100, read-out: % of growth at 25 PPM compared to the negative control, S. typhimurium ATTC700408 LMG16217
# Method: as §1, §2, §3, §4, §5
# HSV-2 (G) = experiment: Anti-viral activity: HSV-2-induced cytopathicity in human embryo fibroblast E6SM cell cultures; assay type: cell-based, herpes simplex virus (HSV); settings: Human alphaherpesvirus 2, 50%
# MRSA ATCC33591 = experiment: Anti-bacterial activity, Bioscreen C growth curve: MRSA; assay type: cell-based, methicillin-resistant Staphylococcus aureus (MRSA); settings: Staphylococcus aureus, ATCC 33591 / LMG10147 / MRSA; 25 PPM; 35° C., 16 hours; negative control = 100; read-out: % of growth at 25 PPM compared to the negative control, MRSA ATCC33591 LMG10147
# Method: as §1, §2, §3, §4, §5
# [4] = tested on: Candida albicans IHEM 10284 - ATCC 24433; experiment: Anti-fungal activity, Bioscreen C growth curve: Candida albicans (yeast); assay type: cell-based; settings: for activity at 25 ppm: Candida albicans, ATCC24433, 35° C., 24 hours, negative control = 100, read-out: % of growth at a dose of 25 PPM compared to the negative control, Candida albicans IHEM 10284 - ATCC 24433
# Method: as §1
# The inoculum size of the yeast is standardized to 0.5-2.5×10^3 CFU/ml.
# as §3, §4, §6
# as §1, with “Also for” for “For”, “the” for “the anti-bacterial and”, “Labsystems Oy, Finland” for “Labsystems, Finland,”, “used.” for “used. This is an automated reader-incubator.”
# as §7, §8
# HIV-1 (IIIB) = experiment: microbe, parasite or virus in culture; assay type: cell-based; settings: Human immunodeficiency virus 1, IIIB, CCRF-CEM; concentration required to inhibit HIV-induced cytopathicity in human CEM cell cultures by 50%
# [5] = tested on: murine mammary carcinoma cells (FM3A); experiment: Cytostatic activity: inhibition of proliferation of FM3A cells; assay type: cell-based; settings: Mus musculus, read-out: IC50 FM3A/0
# Method: (§9) The compounds were tested for anti-tumor activity via the inhibitory effects on the proliferation of murine leukemia cells (L1210/0), murine mammary carcinoma cells (FM3A), human T-lymphocyte cells (Molt4/C8, CEM/0) and human cervix carcinoma cells (HeLa).
# [6] = tested on: human T-lymphocyte cells (CEM/0); experiment: Cytostatic activity: inhibition of proliferation of CEM/0 cells; assay type: cell-based; settings: CCRF-CEM, read-out: IC50 CEM/0
# Method: as §9
# [7] = tested on: E. faecalis ATTC29212 LMG 8222; experiment: Anti-bacterial activity, Bioscreen C growth curve: E. faecalis; assay type: cell-based; settings: Enterococcus faecalis, LMG8222, 35° C., 16 hours, negative control = 100, read-out: % of growth at 25 PPM compared to the negative control, E. faecalis ATTC29212 LMG 8222
# Method: as §1, §2, §3, §4, §5
# [8] = tested on: murine leukemia cells (L1210/0); experiment: Cytostatic activity: inhibition of proliferation of L1210/0 cells; assay type: cell-based; settings: Mus musculus
# Method: as §9
# VZV OKA = experiment: microbe, parasite or virus in culture; assay type: cell-based, varicella zoster virus (VZV); settings: for EC50: Human alphaherpesvirus 3, HEL, read-out: EC50 VZV (HEL) OKA
# [9] = 50% inhibitory concentration, cell proliferation
# [10] = L1210/0, 50% inhibitory concentration, cell proliferation, read-out: IC50 L1210/0
SMILES,activity at 25 ppm [1],EC50 (HIV-2 (ROD)),EC50 (VZV YS),activity at 25 ppm [2],activity at 25 ppm [3],EC50 (HSV-2 (G)),activity at 25 ppm (MRSA ATCC33591),activity at 25 ppm [4],EC50 (HIV-1 (IIIB)),"IC50 [5, 9]","IC50 [6, 9]",activity at 25 ppm [7],"IC50 [8, 10]",EC50 (VZV OKA),IC50 [5],IC50 [6],"IC50 ([8]; L1210/0, read-out: IC50 L1210/0)","anti-viral activity against VZV, in words (VZV OKA; strain not named)","activity against a yeast, in words ([4]; conclusion in text on Table 5)"
CO[C@@H]1[C@@H](OC)[C@H](Cc2ccccc2)O[C@@H]2COC(=O)CCCCCCCCC=CCCCCCCCCC(=O)O[C@@H]12 [KPE00001031E],100%,> 20 µg/mL,15 µg/mL,62%,91.7%,> 400 µg/mL,104%,88.3%,> 100 µg/mL,≥ 200 µg/mL,≥ 200 µg/mL,85.5%,> 200 µg/mL,> 5 µg/mL,–,–,–,–,–
CO[C@@H]1[C@@H](OC)[C@H](Cc2ccccc2)O[C@@H]2CO[C@@H](c3ccccc3)O[C@@H]12 [KPE00001019],109%,> 100 µg/mL,> 5 µg/mL,66%,94.3%,> 80 µg/mL,104%,98.5%,> 100 µg/mL,> 200 µg/mL,≥ 200 µg/mL,104%,> 200 µg/mL,> 5 µg/mL,–,–,–,–,–
CO[C@@H]1[C@@H](OC)[C@H](Sc2ccccc2)O[C@@H]2COC(=O)CCCC/C=C\CCCCC(=O)O[C@@H]12 [KPE00001016.2],97%,> 100 µg/mL,> 50 µg/mL,58%,87%,> 3.2 µg/mL,104%,85%,> 100 µg/mL,> 200 µg/mL,36 ± 16 µg/mL,98.4%,158 ± 10 µg/mL,> 50 µg/mL,–,–,–,–,–
CO[C@@H]1[C@@H](OC)[C@H](Cc2ccccc2)O[C@@H]2COC(=O)CC/C=C/CCC(=O)O[C@@H]12 [KPE00001022],102%,> 20 µg/mL,> 20 µg/mL,67%,94%,80 µg/mL,110%,91.5%,> 20 µg/mL,–,–,96.1%,–,> 20 µg/mL,82 ± 14 µg/mL,48 ± 15 µg/mL,80 µg/mL,–,–
CO[C@@H]1[C@@H](OC)[C@H](Sc2ccccc2)O[C@@H]2COC(=O)CCCC/C=C/CCCCC(=O)O[C@@H]12 [KPE00001016.1],103%,> 4 µg/mL,22 µg/mL,74%,76.4%,> 3.2 µg/mL,115%,98.4%,> 4 µg/mL,108 ± 9 µg/mL,23 ± 0.5 µg/mL,76.5%,20 ± 7 µg/mL,5 µg/mL,–,–,–,especially active,–
CO[C@@H]1[C@@H](OC)[C@H](c2ccccc2)O[C@@H]2CO[C@@H](c3ccccc3)O[C@@H]12 [KPE00001015],104%,> 4 µg/mL,14 µg/mL,66%,87.2%,> 80 µg/mL,117%,66.6%,> 4 µg/mL,> 200 µg/mL,81 ± 10 µg/mL,86%,≥ 200 µg/mL,13 µg/mL,–,–,–,–,best activity
